Measurements from US8937063B2 (Trustees of Tufts College, priority 2010, dated 2015).

How the values were obtained:
[1] = Single oral dose pharmacokinetic comparison niacin, ARI-001, 2230C in wild type mice; format: in vivo, C57BL/6 mice; settings: single bolus oral gavage, mouse plasma; for AUC / Cmax / Tmax / half-life: C57BL/6; for half-life: read-out: half-life (t1/2) (converted)
Excerpt: Compound 2230C has the structure

[2] = test system: high fat+fructose (HF/HS) diet hamsters; assay: 18-day oral dosing lipid study in HF/HS hamsters; format: in vivo, male Golden Syrian hamsters; settings: niacin 1200 mg/kg oral once daily 18 days, mean ± SD
Protocol: We examined the effects of diet modulation on the lipid profile of male Syrian Golden hamsters. Hamsters were ordered from Charles River Labs (Wilmington, Mass.), and requested to be 111-120 g in weight (correspondingly 56-61 days old). Hamsters were kept in cages of 4-5 per cage, and maintained on a standard light cycle of 12 hours on/12 hours off. All diets were obtained from Dyets, Inc. (Bethlehem, Pa.). “Normal Diet” was a standard rodent chow, catalog #5001, produced into pellets. Water and this standard chow diet were available to this group of hamsters ad libitum. Food was added to cages as needed, but no less frequently than twice per week. “High Fat Diet” was the same standard rodent chow supplemented with the following: 11.5% corn oil, 11.5% coconut oil, 0.5% cholesterol, and 0.25% deoxycholate. This is also available directly from Dyets, Inc., as catalog #611201. Both diets were ordered in 10 kg batches and stored at 4° C. for durations of the experiments (4-8 weeks), and at −20° C. for longer storage (up to six months). Water and this high fat diet were available to this group of hamsters ad libitum. The “High Fat+Fructose” group was fed the same fat-supplemented chow as the “high fat diet” group (#611201), but water was supplemented with fructose to a final concentration of 10%. Fructose was supplied from Now Foods (catalog #6931) and distributed by Lucky Vitamin (catalog #WB48432). Fructose water was prepared by adding 400 g of fructose to 4 L of water and stirring at room temperature until dissolved. Fructose water was stored at 4° C. until use. When provided to hamsters, fructose water was kept in a water bottle in the hamster cages at room temperature, exactly as standard water was. Fructose water and high fat chow were provided to this group of hamsters ad libitum. All animals remained on their respective diets for 21 days.
To begin this experiment, hamsters were randomly assigned to groups defined by the diet modifications above. After a fixed time, blood was collected from hamsters (N=3-4) to determine the lipid contents of the plasma. Because of limitations in the ability to adequately collect blood from hamsters, all blood samples were obtained via a terminal cardiac puncture preceded by asphyxiation with carbon dioxide. Blood (approximately 2 mL volume) was collected with a 22 G needle into a 5 mL syringe and transferred to a K2EDTA tube. The samples were kept on ice until centrifugation (14,000 rpm for 10 minutes at 4° C.) to separate plasma. Plasma was then aliquoted to tubes for storage at −80° C. until analysis.
Lipid parameters were determined using commercially available kits from Wako USA (Richmond, Va.) according to manufacturer's directions.
Male Golden Syrian hamsters were purchased from Charles River Labs (111-120 g, 56-61 days) and acclimated to a high fat+fructose (herein, referred to as “HF/HS”) diet as described above for two weeks. Hamsters were assigned into cohorts by body weight after two weeks' acclimation to the diet. […] Hamsters were dosed once per day for a total of 18 days. All animals remained on the above-described HF/HS diet throughout the dosing period. Dosing solutions for each cohort were prepared for 7 days at a time, although enough was prepared to last for 8 days. Each solution was stored at room temperature between administrations. Cohorts were defined according to Table 2 below.

[3] = Human clinical trial, single oral doses: serum concentration; format: in vivo; settings: in vivo, 1500 mg, read-out: Cmax
Protocol: Five periods of single dose escalation, with 8 subjects per cohort (6 drug: 2 placebo) involve a total 40 subjects. Appropriately blinded matching placebos are provided. Cohort 1 receives 500 mg of ARI-001 formulated as a single oral tablet, plus eleven placebo tablets; Cohort 2, […] of ARI-001, plus ten placebo tablets; Cohort 3, […] of ARI-001, plus eight placebo tablets; Cohort 4, […] of ARI-001, plus four placebo tablets; Corhort 5, […] of ARI-001. Placebo-only subjects take twelve placebo tablets. Each tablet is a compressed, film-coated tablet suitable for oral administration.
Pharmacokinetic samples are collected at 0-45 min pre-dose and at 0.5, 1, 1.5, 2, 4, 6, 8, 12, 24, 30 and 168 hours after dosing. […]
[…] […] Analysis of all samples is performed at a central laboratory.

In the case of `O=C(O)c1ccc(CCN2CCCC2)nc1` [Compound 2230C], the AUC [1] is reported as 686 µM·h, the Cmax [1] is reported as 126 µM and the Tmax [1] is reported as 0.31 h. For the same compound, the half-life [1] was 3.47 h, the “AUC (% Niacin)” value [1] was 5.8 % Niacin and the “C24 h/Cmax” value [1] was 2.1%. For the same compound, the “Cmax (% Niacin)” value [1] was 3.0 % Niacin and the Cmax/AUC0-24 [1] was 0.18 h⁻¹.

With `O=C(O)c1cccnc1` [Niacin, nicotinic acid] the HDL/TC [2] was 0.17 ± 0.11, the “FFA (free fatty acids)” value ([2]; plasma) was 1.82 ± 0.69 mEq/L and the HDL ([2]; plasma) was 79 ± 26 mg/dL. The LDL ([2]; plasma) was 170 ± 52 mg/dL, the “TG (triglycerides)” value ([2]; plasma) was 1555 ± 808 mg/dL and the AUC [1] was 11700 µM·h. For the same compound, the Cmax [1] was 4090 µM, the Tmax [1] was 0.5 h and the half-life [1] was 1.75 h. The “AUC (% Niacin)” value [1] was 100 % Niacin, the “C24 h/Cmax” value [1] was 0.02% and the “Cmax (% Niacin)” value [1] was 100 % Niacin. For the same compound, the Cmax [3] was roughly 30000 ng/mL.
